Values of other authors, collected in publication PMC12697872, “Rethinking the AI Paradigm for Solubility Prediction of Drug‑Like Compounds with Dual‐Perspective Modeling and Experimental Validation” (Advanced Science, 2025).

Conditions: discarded ambiguous entries of DrugBank database; ref DrugBank database (version 5.1.12) 24; cited from earlier work

Compound | Experimental solubility
O=C(O)c1ccc2nc(-c3cc(Cl)cc(Cl)c3)oc2c1 [594839-88-0] | >50 mg/mL

Same assay, conditions: experimental aqueous solubility as logS, sheet "DrugBank" of Supplement 2; ref DrugBank; cited from earlier work

Compound | ex_logS
O=C1CN(/N=C/c2ccc([N+](=O)[O-])o2)C(=O)N1 [Nitrofurantoin] | -3.4765
O=C(O)[C@H]1O[C@@H](O)[C@H](O)[C@@H](O)[C@@H]1O [beta-D-glucuronic acid] | 0.3976
Cc1ncc(CO)c(C=O)c1O [Pyridoxal] | 0.4758
C[C@]12C/C(=C/O)C(=O)C[C@@H]1CC[C@@H]1[C@@H]2CC[C@@]2(C)[C@H]1CC[C@]2(C)O [Oxymetholone] | -4.805
c1ccc(-c2ccc(C(c3ccccc3)n3ccnc3)cc2)cc1 (centres unmarked) [bifonazole] | -5.95
NCC[C@H](O)C(=O)N[C@@H]1C[C@H](N)[C@@H](O[C@H]2O[C@H](CN)[C@@H](O)[C@H](O)[C@H]2O)[C@H](O)[C@H]1O[C@H]1O[C@H](CO)[C@@H](O)[C@H](N)[C@H]1O [Amikacin] | -1.069
CN1C(=O)CC(c2ccccc2)C1=O (centres unmarked) [Phensuximide] | -1.431
CN(C)/N=N/c1[nH]cnc1C(N)=O [Dacarbazine] | -1.6352
CC=CC1=C(C(=O)O)N2C(=O)[C@@H](NC(=O)[C@H](N)c3ccc(O)cc3)[C@H]2SC1 [Cefprozil] | -3.85
N[C@@H](Cc1ccc(O)c(O)c1)C(=O)O [Levodopa] | -2.299
CC(C(=O)O)c1ccc(-c2ccccc2)c(F)c1 (centres unmarked) [Flurbiprofen] | -4.485
Cc1cnc(Nc2ccc(OCCN3CCCC3)cc2)nc1Nc1cccc(S(=O)(=O)NC(C)(C)C)c1 [Fedratinib] | -5.118
COc1c(C)c2c(c(O)c1C/C=C(\C)CCC(=O)OCCN1CCOCC1)C(=O)OC2 [Mycophenolate mofetil] | -4.004
COc1ccc(CCN2CCC(Nc3nc4ccccc4n3Cc3ccc(F)cc3)CC2)cc1 [Astemizole] | -3.026
CCCCCCCCCCCC(=O)O [Lauric acid] | -4.62
C[C@@H]1C[C@H]2[C@@H]3CCC4=CC(=O)C=C[C@]4(C)[C@@]3(F)[C@@H](O)C[C@]2(C)[C@@]1(O)C(=O)CO [Dexamethasone] | -3.644

Compound | ex_logS
c1ccc2cnccc2c1 [Isoquinoline] | -1.456
C=CC1=C(C(=O)O)N2C(=O)[C@@H](NC(=O)/C(=N\OCC(=O)O)c3csc(N)n3)[C@H]2SC1 [Cefixime] | -3.9153
O=Cc1ccc(O)cc1 [P-Hydroxybenzaldehyde] | -1.16
O=[N+]([O-])O[C@H]1CO[C@H]2[C@@H]1OC[C@H]2O[N+](=O)[O-] [Isosorbide dinitrate] | -2.6328
NC1(C(=O)O)CCCC1 [Cycloleucine] | -0.4121
c1ccc2[nH]c(-c3cscn3)nc2c1 [Thiabendazole] | -3.605
COc1cc(C(=O)NCc2ccc(OCCN(C)C)cc2)cc(OC)c1OC [Trimethobenzamide] | -3.987
CC(C(=O)O)c1ccc(N2Cc3ccccc3C2=O)cc1 (centres unmarked) [indoprofen] | -4.82
O=C1CN=C(c2ccccn2)c2cc(Br)ccc2N1 [bromazepam] | -3.48
C[C@]12CC[C@H](O)CC1=CC[C@@H]1[C@@H]2CC[C@]2(C)C(=O)CC[C@@H]12 [Prasterone] | -3.657
C=CC(N)CCC(=O)O (centres unmarked) [Vigabatrin] | -0.37
COc1ccc(C2C(=O)c3ccccc3C2=O)cc1 [Anisindione] | -3.5
Oc1ncnc2[nH]ncc12 [allopurinol] | -2.26
CCN1C(=O)NC(c2ccccc2)C1=O (centres unmarked) [Ethotoin] | -1.587
O=c1[nH]cnc2nc[nH]c12 [Hypoxanthine] | -2.2888
Cn1nnc2c(C(N)=O)ncn2c1=O [Temozolomide] | -1.581

Same assay, conditions: experimental aqueous solubility as logS, sheet "DrugBank"; ref DrugBank database; cited from earlier work

Compound | ex_logS
OC[C@H]1O[C@@](CO)(O[C@H]2O[C@H](CO)[C@@H](O)[C@H](O)[C@H]2O)[C@@H](O)[C@@H]1O [Sucrose] | 0.7878
CC(=O)OCC1=C(C(=O)O)N2C(=O)[C@@H](NC(=O)Cc3cccs3)[C@H]2SC1 [Cefalotin] | -3.4
CC(=O)[C@@]1(O)CC[C@H]2[C@@H]3C[C@H](C)C4=CC(=O)C=C[C@]4(C)[C@@]3(F)[C@@H](O)C[C@@]21C [Fluorometholone] | -4.0986
OC[C@@H](O)[C@@H](O)[C@H](O)[C@H](O)CO [Mannitol] | 0.07397
CN(C)[C@@H]1C(O)=C(C(N)=O)C(=O)[C@@]2(O)C(O)=C3C(=O)c4c(O)cccc4[C@@](C)(O)[C@H]3[C@H](O)[C@@H]12 [Oxytetracycline] | -3.168
NC(=O)N/N=C/c1ccc([N+](=O)[O-])o1 [Nitrofural] | -2.975
Nc1ccc(S(=O)(=O)Nc2nccs2)cc1 [Sulfathiazole] | -2.835
CCC(=O)O[C@H]1CC[C@H]2[C@@H]3CCC4=CC(=O)CC[C@]4(C)[C@H]3CC[C@]12C [Testosterone propionate] | -5.367
CN1CCN(C(=O)OC2c3nccnc3C(=O)N2c2ccc(Cl)cn2)CC1 (centres unmarked) [Zopiclone] | -3.411
Cyanocobalamin | -2.035
Clc1ccccc1C(c1ccccc1)(c1ccccc1)n1ccnc1 [Clotrimazole] | -5.847
CN(C)CCCN1c2ccccc2Sc2ccccc21 [Promazine] | -4.302
CCN(CC)C(=S)SSC(=S)N(CC)CC [Disulfiram] | -4.86
COc1cc2c(Nc3ccc(Br)cc3F)ncnc2cc1OCC1CCN(C)CC1 [Vandetanib] | -4.774
N[C@@H](C(=O)N[C@@H]1C(=O)N2C(C(=O)O)=C(Cl)CS[C@H]12)c1ccccc1 [Cefaclor] | -1.566
Nc1ccc(C(=O)O)c(O)c1 [Aminosalicylic acid] | -1.957
O=C(O)[C@@H](O)c1ccccc1 [(S)-Mandelic acid] | 0.07541
CN1C(C(=O)Nc2ccccn2)=C(O)c2sccc2S1(=O)=O [Tenoxicam] | -4.379
CCC1(CC)C(=O)NCC(C)C1=O (centres unmarked) [Methyprylon] | -1.202

Compound | ex_logS
NC(=O)c1ccccc1O [Salicylamide] | -1.823
NCCCNCCSP(=O)(O)O [Amifostine] | 0.6691
CCCN(CCC)S(=O)(=O)c1ccc(C(=O)O)cc1 [Probenecid] | -4.022
CC(=O)/N=c1/sc(S(N)(=O)=O)nn1C [Methazolamide] | -1.829
O=C(CCCN1CCC(O)(c2ccc(Cl)cc2)CC1)c1ccc(F)cc1 [Haloperidol] | -4.4289
O=NN(CCCl)C(=O)NC1CCCCC1 [Lomustine] | -3.323
C#CC1(OC(N)=O)CCCCC1 [Ethinamate] | -1.825
NC(=O)C[C@H](N)C(=O)O [Asparagine] | -0.6526
CCC(C)C(C)(COC(N)=O)COC(N)=O (centres unmarked) [Mebutamate] | -2.366
C=CCC1(CC(C)C)C(=O)NC(=O)NC1=O [Butalbital] | -2.1203
CCOC(=O)C1=C(C)NC(C)=C(C(=O)OC)C1c1cccc(Cl)c1Cl (centres unmarked) [Felodipine] | -4.29
[H]/N=C(\N/C(=N/[H])Nc1ccc(Cl)cc1)NC(C)C [Proguanil] | -3.211
Clc1ccc(C(c2ccccc2Cl)C(Cl)Cl)cc1 (centres unmarked) [Mitotane] | -6.505
Cc1ncc(CO)c(CO)c1O [Pyridoxine] | 0.1141
Nc1ccc(S(=O)(=O)Nc2ccnn2-c2ccccc2)cc1 [Sulfaphenazole] | -2.321
CCCC(CCC)C(=O)O [Valproic acid] | -2.045
C[C@@H]1C[C@H]2[C@@H]3C[C@H](F)C4=CC(=O)C=C[C@]4(C)[C@@]3(F)[C@@H](O)C[C@]2(C)[C@H]1C(=O)CO [Difluocortolone] | -5.289
COc1cc(C)c(/C=C/C(C)=C/C=C/C(C)=C/C(=O)O)c(C)c1C [Acitretin] | -6.651
C=CC1=C(C(=O)O)N2C(=O)[C@@H](NC(=O)/C(=N\O)c3csc(N)n3)[C@H]2SC1 [Cefdinir] | -1.65

Compound | ex_logS
CC(C)/N=c1\cc2n(-c3ccc(Cl)cc3)c3ccccc3nc-2cc1Nc1ccc(Cl)cc1 [Clofazimine] | -6.323
CN(C)CCC=C1c2ccccc2COc2ccccc21 [Doxepin] | -3.9465
O=C(O)[C@H](O)c1ccccc1 [(R)-Mandelic acid] | -0.1409
CC(C)(C#N)c1cc(Cn2cncn2)cc(C(C)(C)C#N)c1 [Anastrozole] | -2.743
Cc1c(OCC(F)(F)F)ccnc1C[S+]([O-])c1nc2ccccc2[nH]1 (centres unmarked) [Lansoprazole] | -5.581
CC/C=C\C/C=C\C/C=C\CCCCCCCC(=O)O [alpha-Linolenic acid] | -6.351
CCCCCc1cc(O)c2c(c1)OC(C)(C)[C@@H]1CCC(C)=C[C@@H]21 [Dronabinol] | -5.05
N[C@@H](Cc1cc(I)c(Oc2cc(I)c(O)c(I)c2)c(I)c1)C(=O)O [Levothyroxine] | -3.869
Nc1ccn([C@@H]2O[C@H](CO)[C@@H](O)C2(F)F)c(=O)n1 [Gemcitabine] | -1.236
CCN(CC)CCOC(=O)c1ccc(N)cc1Cl [Chloroprocaine] | -2.61
Cn1nnc(-c2ccc(-c3ccc(N4C[C@H](CO)OC4=O)cc3F)cn2)n1 [Tedizolid] | -3.569
O=C(/C=C/c1cccc(S(=O)(=O)Nc2ccccc2)c1)NO [Belinostat] | -3.357
C[C@@H](N)C(=O)O [D-Alanine] | 0.2676
Nc1nc2c(ncn2COCCO)c(=O)[nH]1 [Acyclovir] | -2.203
Nc1nnc(-c2cccc(Cl)c2Cl)c(N)n1 [Lamotrigine] | -3.178
C1CCC(C(CC2CCCCN2)C2CCCCC2)CC1 (centres unmarked) [Perhexiline] | -6.659
CC(=O)OCC(=O)[C@@]1(O)CC[C@H]2[C@@H]3CCC4=CC(=O)CC[C@]4(C)[C@H]3C(=O)C[C@@]21C [Cortisone acetate] | -4.304
COc1c(O[C@@H]2O[C@H](CO)[C@@H](O)[C@H](O)[C@H]2O)cc2c(c1OC)-c1ccc(SC)c(=O)cc1[C@@H](NC(C)=O)CC2 [Thiocolchicoside] | -1.751
